From PubChem BioAssay (NCI)
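Following 48 hours of exposure in 96-well plates, responses at five concentrations were used to interpolate endpoints linearly. At the GI50, growth is halved. At the TGI there is no net growth.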

Assays:
Test in all cases: growth of human tumour cells (NCI), 48 h
786-0 renal = system: 786-0 renal
A498 renal = system: A498 renal
ACHN renal = system: ACHN renal
BT-549 breast = system: BT-549 breast
CAKI-1 renal = system: CAKI-1 renal
CCRF-CEM leukemia = system: CCRF-CEM leukemia
COLO 205 colon = system: COLO 205 colon
DU-145 prostate = system: DU-145 prostate
EKVX NSCLC = system: EKVX NSCLC
HCC-2998 colon = system: HCC-2998 colon
HCT-116 colon = system: HCT-116 colon
HCT-15 colon = system: HCT-15 colon
HL-60(TB) leukemia = system: HL-60(TB) leukemia
HOP-62 NSCLC = system: HOP-62 NSCLC
HOP-92 NSCLC = system: HOP-92 NSCLC
HS 578T breast = system: HS 578T breast
HT29 colon = system: HT29 colon
IGROV1 ovarian = system: IGROV1 ovarian
K-562 leukemia = system: K-562 leukemia
KM12 colon = system: KM12 colon
LOX IMVI melanoma = system: LOX IMVI melanoma
M14 melanoma = system: M14 melanoma
MALME-3M melanoma = system: MALME-3M melanoma
MCF7 breast = system: MCF7 breast
MDA-MB-231 breast = system: MDA-MB-231 breast
MDA-MB-435 = system: MDA-MB-435
MOLT-4 leukemia = system: MOLT-4 leukemia
NCI-H226 lung = system: NCI-H226 lung
NCI-H23 lung = system: NCI-H23 lung
NCI-H460 lung = system: NCI-H460 lung
NCI-H522 lung = system: NCI-H522 lung
NCI/ADR-RES ovarian = system: NCI/ADR-RES ovarian
OVCAR-3 ovarian = system: OVCAR-3 ovarian
OVCAR-4 ovarian = system: OVCAR-4 ovarian
OVCAR-5 ovarian = system: OVCAR-5 ovarian
OVCAR-8 ovarian = system: OVCAR-8 ovarian
PC-3 prostate = system: PC-3 prostate
RPMI-8226 leukemia = system: RPMI-8226 leukemia
RXF 393 renal = system: RXF 393 renal
SF-268 CNS = system: SF-268 CNS
SF-295 CNS = system: SF-295 CNS
SF-539 CNS = system: SF-539 CNS
SK-MEL-2 melanoma = system: SK-MEL-2 melanoma
SK-MEL-28 melanoma = system: SK-MEL-28 melanoma
SK-MEL-5 melanoma = system: SK-MEL-5 melanoma
SK-OV-3 ovarian = system: SK-OV-3 ovarian
SN12C renal = system: SN12C renal
SNB-19 CNS = system: SNB-19 CNS
SNB-75 CNS = system: SNB-75 CNS
SR leukemia = system: SR leukemia
SW-620 colon = system: SW-620 colon
T-47D breast = system: T-47D breast
TK-10 renal = system: TK-10 renal
U251 CNS = system: U251 CNS
UACC-257 melanoma = system: UACC-257 melanoma
UACC-62 melanoma = system: UACC-62 melanoma
UO-31 renal = system: UO-31 renal

## CC(C)=NNc1ncnc2c1ncn2C1OC(CO)C(O)C1O (stereo unspecified)
786-0 renal
  GI50: 720 nM
  TGI: 30400 nM
A498 renal
  GI50: 1430 nM
  TGI: > 100000 nM
ACHN renal
  GI50: 278 nM
  TGI: 3240 nM
BT-549 breast
  GI50: 1610 nM
  TGI: 15400 nM
CAKI-1 renal
  GI50: 303 nM
  TGI: 17100 nM
CCRF-CEM leukemia
  GI50: 581 nM
  TGI: > 100000 nM
COLO 205 colon
  GI50: 414 nM
  TGI: 6310 nM
DU-145 prostate
  GI50: 324 nM
  TGI: 2400 nM
EKVX NSCLC
  GI50: 2950 nM
  TGI: > 73400 nM
HCC-2998 colon
  GI50: 1940 nM
  TGI: > 53000 nM
HCT-116 colon
  GI50: 144 nM
  TGI: 2070 nM
HCT-15 colon
  GI50: 217 nM
HL-60(TB) leukemia
  GI50: 402 nM
  TGI: 5610 nM
HOP-62 NSCLC
  GI50: 398 nM
  TGI: 4210 nM
HOP-92 NSCLC
  GI50: 503 nM
  TGI: 5270 nM
HS 578T breast
  GI50: 5800 nM
  TGI: > 26300 nM
HT29 colon
  GI50: 268 nM
  TGI: > 100000 nM
IGROV1 ovarian
  GI50: 287 nM
K-562 leukemia
  GI50: 417 nM
  TGI: > 100000 nM
KM12 colon
  GI50: 378 nM
  TGI: 2650 nM
LOX IMVI melanoma
  GI50: 228 nM
  TGI: 3250 nM
M14 melanoma
  GI50: 752 nM
  TGI: > 100000 nM
MALME-3M melanoma
  GI50: 11800 nM
  TGI: > 100000 nM
MCF7 breast
  GI50: 327 nM
  TGI: > 51500 nM
MDA-MB-231 breast
  GI50: 285 nM
  TGI: 13600 nM
MDA-MB-435
  GI50: 528 nM
  TGI: 11700 nM
MOLT-4 leukemia
  GI50: 4860 nM
  TGI: > 100000 nM
NCI-H226 lung
  GI50: 448 nM
  TGI: > 100000 nM
NCI-H23 lung
  GI50: 1480 nM
  TGI: 19400 nM
NCI-H460 lung
  GI50: 304 nM
NCI-H522 lung
  GI50: 283 nM
  TGI: 3240 nM
NCI/ADR-RES ovarian
  GI50: 442 nM
  TGI: > 21600 nM
OVCAR-3 ovarian
  GI50: 385 nM
  TGI: 1970 nM
OVCAR-4 ovarian
  GI50: 509 nM
  TGI: > 32100 nM
OVCAR-5 ovarian
  GI50: 1160 nM
  TGI: > 31100 nM
OVCAR-8 ovarian
  GI50: 332 nM
  TGI: > 100000 nM
PC-3 prostate
  GI50: 733 nM
  TGI: 29100 nM
RPMI-8226 leukemia
  GI50: 537 nM
  TGI: 4040 nM
RXF 393 renal
  GI50: 300 nM
  TGI: 3540 nM
SF-268 CNS
  GI50: 1410 nM
  TGI: > 100000 nM
SF-295 CNS
  GI50: 529 nM
  TGI: > 33200 nM
SF-539 CNS
  GI50: 2060 nM
  TGI: 11300 nM
SK-MEL-2 melanoma
  GI50: 1810 nM
  TGI: 29200 nM
SK-MEL-28 melanoma
  GI50: 4500 nM
  TGI: > 100000 nM
SK-MEL-5 melanoma
  GI50: 990 nM
  TGI: 4200 nM
SK-OV-3 ovarian
  GI50: 324 nM
  TGI: 4220 nM
SN12C renal
  GI50: 476 nM
  TGI: 15300 nM
SNB-19 CNS
  GI50: 1430 nM
  TGI: > 100000 nM
SNB-75 CNS
  GI50: 1340 nM
  TGI: > 78100 nM
SR leukemia
  GI50: 414 nM
  TGI: > 22000 nM
SW-620 colon
  GI50: 381 nM
  TGI: > 100000 nM
T-47D breast
  GI50: 542 nM
  TGI: 9600 nM
TK-10 renal
  GI50: 529 nM
  TGI: > 100000 nM
U251 CNS
  GI50: 648 nM
  TGI: > 100000 nM
UACC-257 melanoma
  GI50: 5750 nM
  TGI: > 100000 nM
UACC-62 melanoma
  GI50: 1210 nM
  TGI: 9300 nM
UO-31 renal
  GI50: 354 nM
  TGI: 7680 nM
